Our source for the relative viability values is the supplement of paper PMC10307832.

What all share (test): relative viability (nuclei count vs DMSO), 5 days (fraction); higher = more cells survive
Assay [1] deals with IA-LM. The procedure, abridged: (§1)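 After 5 days of treatment, lung cancer cells in 1536-well plates were fixed and stained in a single step (final 0.05% Triton X-100, 1% formaldehyde, 1 ug/ml Hoechst) and their nuclei counted on 4× images. Treatment had been applied by pin tool the day after seeding as one drug alone or as a fixed anchor-drug dose with five library-drug doses (not always all listed) in √10 steps. Relative viability is the nuclei count of treated wells divided by that of vehicle wells, and values are medians of duplicate plates.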

In assay [2] the test system is HARA. The procedure, abridged:
as §1

Assay [3] deals with LXF-289. In short, it runs like this: as §1
Assay [4] concerns NCI-H650. In short, it runs like this: as §1
The subject of assay [5] is EBC-1. The procedure, abridged: as §1
Assay [6] concerns A549. The procedure, abridged: as §1
For assay [7], the system named is NCI-H1703. The procedure, abridged: as §1
Assay [8] deals with Calu-6. In short, it runs like this: as §1
In assay [9] the test system is NCI-H1299. The procedure, abridged:
as §1

Assay [10] concerns NCI-H1563. In short, it runs like this:
as §1

Each structure is given as a SMILES string.

Take `Oc1nc(-c2ccc(C(F)(F)F)cc2)nc2c1CSCC2` [XAV939] + O=C(CCCCCCC(=O)Nc1ccccc1)NO [Vorinostat] (partner 1 µM): the relative viability in assay [1] (first compound 0.08 µM) was found to be 1.08; in assay [1] (first compound 0.253 µM) it was 0.664; in [1] (first compound 0.8 µM) it was 0.951; in [1] (first compound 2.53 µM), 0.778; in assay [2] (first compound 0.08 µM), 0.529; in assay [2] (first compound 0.253 µM), 0.511. For the same molecule, the relative viability in assay [2] (first compound 0.8 µM) came to 0.648; in [2] (first compound 2.53 µM), 0.535; in assay [3] (first compound 0.08 µM), 0.728; in assay [3] (first compound 0.253 µM), 0.68; in [3] (first compound 0.8 µM), 0.804; in assay [3] (first compound 2.53 µM) it was 0.8. For the same molecule, the relative viability is 0.461 in [4] (first compound 0.08 µM), 0.345 in assay [4] (first compound 0.253 µM), 0.506 in [4] (first compound 0.8 µM) and 0.368 in assay [4] (first compound 2.53 µM).

Turning to `C=C1C(=O)O[C@@H](CCCCCCCC)[C@@H]1C(=O)O` [C-75] + CC1(C)CCC(c2ccc(Cl)cc2)=C(CN2CCN(c3ccc(C(=O)NS(=O)(=O)c4ccc(N[C@H](CCN5CCOCC5)CSc5ccccc5)c(S(=O)(=O)C(F)(F)F)c4)cc3)CC2)C1 [Navitoclax] (partner 0.5 µM), the relative viability in [5] (first compound 0.08 µM) is 0.389; in assay [5] (first compound 0.253 µM) it was 0.508; in assay [5] (first compound 0.8 µM) it was 0.306; in [5] (first compound 2.53 µM), 0.356; in assay [5] (first compound 8 µM) it was 0.219; in assay [6] (first compound 0.08 µM), 1.12. Moreover, the relative viability in assay [6] (first compound 0.253 µM) was determined as 1.29; in assay [6] (first compound 0.8 µM), 1.18; in assay [6] (first compound 2.53 µM), 0.819; in [6] (first compound 8 µM), 1.15; in [1] (first compound 0.08 µM), 0.754; in [1] (first compound 0.253 µM), 0.834. Besides, the relative viability turned out to be 0.819 in assay [1] (first compound 0.8 µM); 0.52 in assay [1] (first compound 2.53 µM); 0.512 in assay [1] (first compound 8 µM); 1.07 in assay [2] (first compound 0.08 µM); 1.26 in [2] (first compound 0.253 µM); 1.12 in assay [2] (first compound 0.8 µM). The relative viability is 1.14 in assay [2] (first compound 8 µM); 1.15 in assay [7] (first compound 0.08 µM); 1.12 in assay [7] (first compound 0.253 µM); 0.817 in assay [7] (first compound 0.8 µM); 1.09 in assay [7] (first compound 2.53 µM); 0.967 in assay [7] (first compound 8 µM). For the same molecule, the relative viability in [3] (first compound 0.08 µM) was 0.896; in assay [3] (first compound 0.253 µM), 0.999; in assay [3] (first compound 0.8 µM) it was 0.91; in [3] (first compound 2.53 µM) it was 0.873; in assay [3] (first compound 8 µM), 0.928; in [8] (first compound 0.08 µM), 0.819. The relative viability in assay [8] (first compound 0.253 µM) came out at 0.864; in assay [8] (first compound 0.8 µM), 0.786; in assay [8] (first compound 2.53 µM) it was 0.738; in assay [8] (first compound 8 µM), 0.714; in assay [9] (first compound 0.08 µM) it was 1.07; in assay [9] (first compound 0.253 µM), 1.03. The relative viability in assay [9] (first compound 0.8 µM) is 1.05; in [9] (first compound 2.53 µM), 1.03; in [9] (first compound 8 µM), 1.12.

Take `C=C1C(=O)O[C@@H](CCCCCCCC)[C@@H]1C(=O)O` [C-75] + NC(=O)Nc1cc(-c2cccc(F)c2)sc1C(=O)N[C@H]1CCCNC1 [AZD7762] (partner 0.2 µM): the relative viability in assay [2] (first compound 0.08 µM) came out at 0.568; in [2] (first compound 0.253 µM), 0.469; in assay [2] (first compound 0.8 µM) it was 0.213; in assay [2] (first compound 2.53 µM) it was 0.447; in assay [2] (first compound 8 µM), 0.722; in assay [7] (first compound 0.08 µM), 0.125. Moreover, the relative viability in [7] (first compound 0.253 µM) was found to be 0.126; in assay [7] (first compound 0.8 µM), 0.115; in assay [7] (first compound 8 µM), 0.149; in [3] (first compound 0.08 µM) it was 1.07; in assay [3] (first compound 0.253 µM), 1.21; in assay [3] (first compound 0.8 µM) it was 1.02. Further, the relative viability in [3] (first compound 2.53 µM) worked out at 1.07; in [3] (first compound 8 µM), 1.21; in [4] (first compound 0.08 µM) it was 0.935; in assay [4] (first compound 0.253 µM) it was 0.796; in [4] (first compound 0.8 µM), 1.01; in [4] (first compound 2.53 µM) it was 0.81. Besides, in assay [4] (first compound 8 µM), the relative viability was found to be 1.02.

As to `C=C1C(=O)O[C@@H](CCCCCCCC)[C@@H]1C(=O)O` [C-75] + Nc1nc2[nH]cc(CCc3ccc(C(=O)N[C@@H](CCC(=O)O)C(=O)O)cc3)c2c(=O)[nH]1 [Pemetrexed] (partner 0.2 µM), the relative viability in assay [2] (first compound 0.08 µM) was found to be 0.273; in [2] (first compound 0.253 µM), 0.254; in [2] (first compound 0.8 µM) it was 0.233; in [2] (first compound 2.53 µM) it was 0.222; in assay [2] (first compound 8 µM), 0.299; in assay [3] (first compound 0.08 µM) it was 0.834. Further, the relative viability in assay [3] (first compound 0.253 µM) was 0.906; in assay [3] (first compound 0.8 µM), 0.858; in assay [3] (first compound 2.53 µM) it was 0.886; in assay [3] (first compound 8 µM), 0.904; in [4] (first compound 0.08 µM) it was 1.28; in assay [4] (first compound 0.253 µM) it was 0.888. Besides, the relative viability is 0.857 in assay [4] (first compound 0.8 µM); 0.823 in [4] (first compound 2.53 µM); 0.882 in [4] (first compound 8 µM); 0.8 in assay [10] (first compound 0.08 µM); 0.915 in [10] (first compound 0.253 µM); 0.753 in assay [10] (first compound 0.8 µM). Moreover, the figures for the relative viability in [10] (first compound 2.53 µM) and in assay [10] (first compound 8 µM) were 0.666 and 0.924, respectively.
